# Experimental data: patent US8829004B2, “Method for inducing tumor apoptosis by increasing nitric oxide levels” (Universitätsklinikum Freiburg, priority 2006, dated 2014)
# Tests used:
# [1] = test system: L929 cells; assay: Apoptosis induction by azoles in L929 cells with TGF-beta; format: cell-based, murine; conditions: 2 mM histidine; 3-AT at 25 mM
# Protocol: FIG. 3 discloses experimental data obtained with 25000 L929 cells in 48 well tissue culture clusters in the presence of 20 ng/ml TGF-beta. Itraconazole was added at the indicated concentrations, in the presence or absence of 2 mM histidine (singlet oxygen scavenger). The percentage of apoptotic cells was determined after 37 hrs.
# The dashed lines indicate the percentage of apoptotic cells obtained when the tumor cell catalase was blocked by 25 mM […] (3-AT).
# FIG. 4 discloses experimental data obtained with 25000 L929 cells in 48 well tissue culture clusters in the presence of 20 ng/ml TGF-beta. “No addition” represents the control without addition of compound. […] The percentage of apoptotic cells was determined after 63 hrs.
# The first step comprises contacting tumor cells in media comprising TGF-beta with the test compounds to be analyzed for their properties of apoptosis induction. After a specific incubation time, the extent of apoptosis induction is determined, e.g. after two days. Methods for determining the apoptosis in cells in a quantitative manner are well known in the art and are for example described by Jürgensmeier et al. (Cancer Research 1994; 54:393-398). […] These features of apoptotic cells can be determined through phase contrast microscopy or after chromatin staining with fluorescent dyes, followed by fluorescence microscopy. […]
# [2] = test system: SKNMC cells (human neuroblastoma); assay: Apoptosis induction in SKNMC cells with ROS pathway inhibitors (FIG. 5); format: cell-based
# Protocol: FIG. 5 discloses experimental data obtained with 25 000 SKNMC cells (human neuroblastoma) in 48 well tissue culture clusters (without addition of TGF-beta). […] Control assays contained the respective compound in the absence of any inhibitors. Parallel assays contained either 200 μM of the NADPH (nicotinamide adenine dinucleotide phosphate) oxidase inhibitor AEBSF, 10 μM of the nNOS-specific NO synthetase inhibitor 3-Br-7-Ni (3-bromo-7-nitroindazole), 2 mM of the singlet oxygen scavenger histidine or 50 mM of the HOCl scavenger taurine. The percentage of apoptotic cells was determined at the indicated time points.
# For all inducers, apoptosis induction was dependent on superoxide anion generation and NO synthesis, as it was blocked by AEBSF and 3-Br-7-Ni respectively. In contrast to the NO/peroxynitrite pathway, the HOCl pathway played no role for apoptosis induction in this particular line. Apoptosis induction by all azoles tested depended on singlet oxygen action, as it was blocked by histidine.
# [3] = test system: SISO cells (human cervix carcinoma); assay: Apoptosis induction by taxol in SISO cells, 48 well (FIGS. 6-8, Example 4); format: cell-based; conditions: for synergistic effect with taxol on apoptosis: 10 mM arginine, 200 μM Nor-NOHA or both, suboptimal taxol, 20 ng/ml TGF
# Protocol: FIG. 6 discloses experimental data obtained with 25000 SISO cells (human cervix carcinoma) cultured in 48 well tissue culture clusters in the presence of the indicated concentrations of the established chemotherapeutic compound taxol. The assays contained 2 mM Histidine or not.
# FIG. 7 discloses experimental data obtained with 25000 SISO cells (human cervix carcinoma) cultured in 48 well tissue culture clusters either in the absence of any inducer (“no addition”) or in the presence of 10 μg/ml taxol (“TAX”) without further additions or with the addition of 100 μM of the NADPH oxidase inhibitor AEBSF, 100 U/ml of the superoxide anion scavenger SOD (Manganese-containing SOD from E. coli), 100 U/ml catalase, 150 μM of the peroxidase inhibitor ABH (aminobenzoylhydrazide), 50 mM of the HOCl scavenger taurine, 1 mM of the hydroxyl radical scavenger mannitol, 2.4 mM of the NO synthase inhibitor L-NAME, and 25 μM of the inhibitors for caspase 3, −9 and 8.
# FIG. 8 discloses experimental data obtained with 25 000 SISO cells in 48 well tissue culture clusters in the presence of 20 ng/ml TGF and the indicated concentrations of taxol. Where indicated, taxol containing assays received 10 mM arginine (10 ARG), 200 μM Nor-NOHA or a combination of both.
# Human SISO cells are used in a 48-well plate (Costar) in 200 μl media with a cell concentration of 25,000. The media comprises 20 ng/ml TGF-beta and furthermore Taxol subjected for testing in a concentration ranging from 1.25-20 ng/ml. For comparison, control experiments are performed without Taxol which is tested for apoptosis induction.
# Step 2 is carried out with the same conditions as specified for step 1, whereas all cells are contacted with taxol. In addition, histidine (2 mM) is added to the cells, whereas also experiments without histidine are performed as control experiments.
# In a further experiment using the conditions of step 1, human tumor cells (SISO) are contacted with taxol (10 μg/ml) and 100 μM of the NADPH oxidase inhibitor AEBSF, 100 U/ml of the superoxide anion scavenger SOD (Manganese-containing SOD from E. coli), 100 U/ml catalase, 150 μM of the peroxidase inhibitor ABH (aminobenzoylhydrazide), 50 mM of the HOCl scavenger taurine, 1 mM of the hydroxyl radical scavenger mannitol or 2.4 mM of the NO synthase inhibitor L-NAME.
# [4] = test system: SKNMC; assay: Inhibitor effect on inducer-mediated apoptosis, SKNMC cells (Example 6); format: cell-based, human
# Protocol: (§1) The effect of a singlet oxygen scavenger, a NO synthase inhibitor and a HOCl scavenger on either the destruction of the catalase or the HOCl pathway was determined by the following experiment. 12500 SISO cells in 100 μl media in 96 tissue wells were treated with taxol (20 μg/ml) in the presence of TGF-β (20 ng/ml). In addition, the singlet oxygen scavenger, the NO synthase inhibitor or the HOCl scavenger was added at different points of time in the experiments.
# (§2) Further experiments have been carried out using different types of cells and different apoptosis inhibitors. The experimental setup was analogue to the examples 5a-5c and the late addition of the inhibitor (histidine, L-NAME, 3-Br-7-Nitroindazole or taurine) was performed 1 hour after beginning of the experiment. The concentrations of taxol, histidine, L-NAME and taurine were the same as in the experiments 5a-5c. 3-Br-7-Nitroindazole was added at a concentration of 10 μm. The apoptosis inducing compounds were added at increasing concentrations (0-5 mM arginine, 0-20 μg/ml taxol, 0-20 μg/ml artemisine, 0-20 μg/ml xanthohumol, 0-20 μg/ml itraconazole, 0-10 μg/ml miconazole, 0-20 μg/ml antibody against Apo/FAS receptor). In each of the experiments, the effect of the inhibitors on the singlet oxygen mediated catalase destruction and/or the subsequent ROS signaling could be observed. […]
# [5] = test system: Gumbus; assay: Inhibitor effect on inducer-mediated apoptosis, Gumbus cells (Example 6); format: cell-based
# Protocol: as §1
# (§3) Further experiments have been carried out using different types of cells and different apoptosis inhibitors. The experimental setup was analogue to the examples 5a-5c and the late addition of the inhibitor (histidine, L-NAME, 3-Br-7-Nitroindazole or taurine) was performed 1 hour after beginning of the experiment. The concentrations of taxol, histidine, L-NAME and taurine were the same as in the experiments 5a-5c. 3-Br-7-Nitroindazole was added at a concentration of 10 μm. The apoptosis inducing compounds were added at increasing concentrations (0-5 mM arginine, 0-20 μg/ml taxol, 0-20 μg/ml artemisine, 0-20 μg/ml xanthohumol, 0-20 μg/ml itraconazole, 0-10 μg/ml miconazole, 0-20 μg/ml antibody against Apo/FAS receptor). In each of the experiments, the effect of the inhibitors on the singlet oxygen mediated catalase destruction and/or the subsequent ROS signaling could be observed. […] Addition of histidine at the beginning of the experiment caused inhibition in all experiments and for all cell lines shown. […] The experiments using neuroblastoma cells only display apoptosis mediated by the NO pathway as these cells only release small amounts of peroxidase. Therefore, addition of the nNOS-specific inhibitor 3-Br-7NI caused inhibition of apoptosis, irrespective of the time of addition. […] Addition of taurine in the presence of higher concentrations of inducers inhibited apoptosis irrespective of the time of addition (zero versus one hour), as HOCl is only involved in intercellular signaling, but not in catalase destruction.
# [6] = test system: MKN-45; assay: Inhibitor effect on inducer-mediated apoptosis, MKN-45 cells (Example 6); format: cell-based
# Protocol: as §1, §3
# [7] = test system: normal diploid fibroblasts; assay: Toxicity test on normal diploid fibroblasts (step 3); format: cell-based; conditions: conditions of step 1, two days; data not shown
# Protocol: The method for identifying suitable compounds can additionally comprise a third step. The third step comprises contacting the identified compounds from step 2 with normal diploid fibroblasts in order to determine whether these compounds induce apoptosis or other toxic reactions and are therefore not suitable for a medical use.
# The experimental conditions are the same as for step 1, whereas the cells used for step 3 are normal diploid fibroblasts. Control experiments are carried out without the test compound, and the cells are incubated for two days.
# [8] = test system: SISO cells; assay: Timed inhibitor addition on inducer-mediated apoptosis in SISO cells, 96 well (Examples 5, 6); format: cell-based, human
# Protocol: FIG. 9 discloses experimental data obtained with 12500 SISO cells in 96 well tissue culture clusters in the presence of 20 ng/ml TGF and the indicated concentrations of taxol. Furthermore, histidine was added at different time points in the experiment.
# FIG. 11 refers to a similar experiment as described with respect to FIG. 8 or 9, whereas histidine/L-NAME was substituted by taurine (50 mM, scavenger of HOCl).
# as §1
# The concentrations of taxol, histidine, L-NAME and taurine were the same as in the experiments 5a-5c. 3-Br-7-Nitroindazole was added at a concentration of 10 μm. The apoptosis inducing compounds were added at increasing concentrations (0-5 mM arginine, 0-20 μg/ml taxol, 0-20 μg/ml artemisine, 0-20 μg/ml xanthohumol, 0-20 μg/ml itraconazole, 0-10 μg/ml miconazole, 0-20 μg/ml antibody against Apo/FAS receptor).
# [9] = test system: SHEP; assay: Inhibitor effect on inducer-mediated apoptosis, SHEP cells (Example 6); format: cell-based, human
# Protocol: as §1, §2
# [10] = test system: SISO cells (human cervix carcinoma); assay: Apoptosis induction by taxol in SISO cells, 48 well (FIGS. 6-8, Example 4); format: cell-based
# [11] = SISO, inducer at increasing concentrations
smiles,measurement,setting,value
"Nc1nc[nH]n1 [3-AT, 3-aminotriazole]",effect of histidine on induced apoptosis,[1],not blocked by histidine
same,effect of histidine on induced apoptosis (singlet oxygen dependence),[2]; 2 mM histidine,singlet oxygen is not required
same,apoptosis induction (percentage of apoptotic cells),"[2]; 12.5 or 25 μg/ml azole, 75 mM 3-AT, without TGF-beta",induced apoptosis in the tumor cells to a significant extent
N=C(N)NCCC[C@H](N)C(=O)O [Arginine],synergistic effect with taxol on apoptosis,[3],synergistic effect
same,apoptosis inhibitory effect of Histidine,[4],+
same,apoptosis inhibitory effect of 3-Br-7-NI,[4]; 3-Br-7-Nitroindazole 10 μm,+
same,apoptosis inhibitory effect of Histidine,[5],+
same,apoptosis inhibitory effect of L-NAME,[5],+
same,apoptosis inhibitory effect of Taurine,[5],+
C[C@@H]1CC[C@H]2[C@@H](C)C(=O)O[C@@H]3O[C@@]4(C)CC[C@@H]1[C@]32OO4 [Artemisinine],apoptosis inhibitory effect of Histidine,[6],+
same,apoptosis inhibitory effect of L-NAME,[6],+
same,apoptosis inhibitory effect of Taurine,[6],+
CCC(C)n1ncn(-c2ccc(N3CCN(c4ccc(OCC5COC(Cn6cncn6)(c6ccc(Cl)cc6Cl)O5)cc4)CC3)cc2)c1=O (centres unmarked) [Itraconazole],apoptosis inhibitory effect of Histidine,[5],+
same,apoptosis inhibitory effect of L-NAME,[5],+
same,apoptosis inhibitory effect of Taurine,[5],+
Clc1ccc(COC(Cn2ccnc2)c2ccc(Cl)cc2Cl)c(Cl)c1 (centres unmarked) [Miconazole],apoptosis inhibitory effect of Histidine,[5],+
same,apoptosis inhibitory effect of L-NAME,[5],+
same,apoptosis inhibitory effect of Taurine,[5],+
"N=C(NO)NCC[C@H](N)C(=O)O [Nor-NOHA, N^omega-hydroxy-nor-L-arginine]",synergistic effect with taxol on apoptosis,[3],synergistic effect
CC(=O)O[C@H]1C(=O)[C@@]2(C)[C@H]([C@H](OC(=O)c3ccccc3)[C@]3(O)C[C@H](OC(=O)[C@H](O)[C@@H](NC(=O)c4ccccc4)c4ccccc4)C(C)=C1C3(C)C)[C@]1(OC(C)=O)CO[C@@H]1C[C@@H]2O [Taxol],effect of histidine on taxol-induced apoptosis,[3]; 2 mM histidine,inhibited by histidine at all concentrations
same,apoptosis induction,"[3]; Taxol 1.25-20 ng/ml, 20 ng/ml TGF-beta",apoptosis already occurs after 12.5 hours at all concentrations
same,caspase dependence of apoptosis induction,"[3]; taxol 10 μg/ml, 25 μM inhibitors for caspase 3, -9 and 8",mediated by caspases 9 and 3 (mitochondrial pathway) and is independent of the death receptor specific caspase 8
same,"effect of inhibitors of superoxide anion generation (AEBSF, SOD) on taxol-mediated apoptosis","[3]; taxol 10 μg/ml, 100 μM AEBSF, 100 U/ml SOD",inhibited
same,effect of inhibitor of the NO pathway (L-NAME) on taxol-mediated apoptosis,"[3]; taxol 10 μg/ml, 2.4 mM L-NAME",not by the inhibitor of the NO pathway
same,"effect of inhibitors of the HOCl pathway (catalase, ABH, taurine, mannitol) on taxol-mediated apoptosis","[3]; taxol 10 μg/ml, 100 U/ml catalase, 150 μM ABH, 50 mM taurine, 1 mM mannitol",inhibited
same,apoptosis induction in diploid fibroblasts,[7],did not induce significant apoptosis
same,effect of histidine added at the beginning on taxol-induced apoptosis,[8]; 2 mM histidine at start,inhibits the tumor apoptosis to a great extend
same,effect of late addition of L-NAME on taxol-induced apoptosis,[8]; 2.4 mM L-NAME 5 hours after beginning,only shows some inhibition at low taxol concentrations
same,effect of early addition of L-NAME on taxol-induced apoptosis,[8]; 2.4 mM L-NAME at start,inhibits tumor apoptosis
same,effect of taurine on taxol-induced apoptosis,[8]; 50 mM taurine at start or after 5 hours,only inhibits tumor apoptosis at high taxol concentrations
same,apoptosis inhibitory effect of Histidine,[8]; [11],+
same,apoptosis inhibitory effect of L-NAME,[8]; [11],+
same,apoptosis inhibitory effect of Taurine,[8]; [11],+
same,effect of late addition of histidine on taxol-induced apoptosis,[8]; histidine 5 hours after beginning,only shows a small effect of apoptosis inhibition
same,apoptosis inhibitory effect of Histidine,[9],+
same,apoptosis inhibitory effect of 3-Br-7-NI,[9]; 3-Br-7-Nitroindazole 10 μm,+
same,apoptosis inhibitory effect of Histidine,[5],+
same,apoptosis inhibitory effect of L-NAME,[5],+
same,apoptosis inhibitory effect of Taurine,[5],+
same,signaling pathway used at low taxol concentration,"[10]; 2 μg/ml taxol, data not shown",the NO pathway became more prominent
same,apoptosis induction in SISO cells with siRNA knockdown of superoxide anion generation,[10]; siRNA-based genetic knockdown,did not lead to taxol-mediated apoptosis induction
COc1cc(O)c(CC=C(C)C)c(O)c1C(=O)/C=C/c1ccc(O)cc1 [Xanthohumol],apoptosis inhibitory effect of Histidine,[5],+
same,apoptosis inhibitory effect of L-NAME,[5],+
same,apoptosis inhibitory effect of Taurine,[5],+
